ChEMBL document CHEMBL1138334, “From astemizole to a novel hit series of small-molecule somatostatin 5 receptor antagonists via GPCR affinity profiling” (J Med Chem, 2007)

Key:
[1] = target: Somatostatin receptor type 5 (Homo sapiens, UniProt P35346); test: Binding affinity to human SST5R
[2] = target: Somatostatin receptor type 3 (Homo sapiens, UniProt P32745); test: Binding affinity to human SST3R
Histamine H1 receptor = Histamine H1 receptor (Homo sapiens, UniProt P35367); test: Binding affinity to human histamine H1 receptor
Histamine H1 receptor, sequence (P35367 whole entry): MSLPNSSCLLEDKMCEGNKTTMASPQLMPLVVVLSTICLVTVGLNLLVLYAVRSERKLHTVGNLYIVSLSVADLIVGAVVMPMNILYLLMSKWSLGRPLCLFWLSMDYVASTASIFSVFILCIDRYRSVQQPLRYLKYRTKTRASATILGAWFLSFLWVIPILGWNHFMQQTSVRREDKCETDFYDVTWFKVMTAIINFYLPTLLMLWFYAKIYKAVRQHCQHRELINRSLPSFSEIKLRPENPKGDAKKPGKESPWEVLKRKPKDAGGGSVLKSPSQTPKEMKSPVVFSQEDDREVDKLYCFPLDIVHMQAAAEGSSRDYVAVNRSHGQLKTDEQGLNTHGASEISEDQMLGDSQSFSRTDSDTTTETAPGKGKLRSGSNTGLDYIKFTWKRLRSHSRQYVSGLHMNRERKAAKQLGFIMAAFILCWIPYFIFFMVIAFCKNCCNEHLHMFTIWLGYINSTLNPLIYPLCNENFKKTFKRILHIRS

[3] = target: Somatostatin receptor type 1 (Homo sapiens, UniProt P30872); test: Binding affinity to human SST1R
Somatostatin receptor type 1, sequence (P30872 whole entry): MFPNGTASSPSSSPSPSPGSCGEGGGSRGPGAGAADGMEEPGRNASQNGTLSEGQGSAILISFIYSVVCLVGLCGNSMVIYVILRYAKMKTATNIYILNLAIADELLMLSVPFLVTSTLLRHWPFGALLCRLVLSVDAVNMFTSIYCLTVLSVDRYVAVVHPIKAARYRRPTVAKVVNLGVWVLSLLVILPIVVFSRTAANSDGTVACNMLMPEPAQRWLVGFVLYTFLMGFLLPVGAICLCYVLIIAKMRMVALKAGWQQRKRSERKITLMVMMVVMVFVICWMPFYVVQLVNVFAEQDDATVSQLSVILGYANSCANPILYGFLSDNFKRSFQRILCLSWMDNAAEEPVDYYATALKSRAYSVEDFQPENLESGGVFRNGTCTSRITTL

[4] = target: Somatostatin receptor type 2 (Homo sapiens, UniProt P30874); test: Binding affinity to human SST2R
Somatostatin receptor type 2, sequence (P30874 whole entry): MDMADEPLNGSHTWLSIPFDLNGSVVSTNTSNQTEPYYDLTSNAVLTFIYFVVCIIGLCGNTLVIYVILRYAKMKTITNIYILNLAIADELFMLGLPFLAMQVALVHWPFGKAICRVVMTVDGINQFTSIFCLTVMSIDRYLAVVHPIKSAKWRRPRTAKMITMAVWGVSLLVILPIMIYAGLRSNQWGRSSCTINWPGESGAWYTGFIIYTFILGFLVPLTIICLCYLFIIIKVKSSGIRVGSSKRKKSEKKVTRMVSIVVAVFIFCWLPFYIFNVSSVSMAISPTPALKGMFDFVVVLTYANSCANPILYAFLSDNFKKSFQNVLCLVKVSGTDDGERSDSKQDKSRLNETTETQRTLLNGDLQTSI

[5] = target: Voltage-gated inwardly rectifying potassium channel KCNH2 (Homo sapiens, UniProt Q12809); test: Binding affinity to human ERG channel
Voltage-gated inwardly rectifying potassium channel KCNH2, sequence (Q12809 whole entry): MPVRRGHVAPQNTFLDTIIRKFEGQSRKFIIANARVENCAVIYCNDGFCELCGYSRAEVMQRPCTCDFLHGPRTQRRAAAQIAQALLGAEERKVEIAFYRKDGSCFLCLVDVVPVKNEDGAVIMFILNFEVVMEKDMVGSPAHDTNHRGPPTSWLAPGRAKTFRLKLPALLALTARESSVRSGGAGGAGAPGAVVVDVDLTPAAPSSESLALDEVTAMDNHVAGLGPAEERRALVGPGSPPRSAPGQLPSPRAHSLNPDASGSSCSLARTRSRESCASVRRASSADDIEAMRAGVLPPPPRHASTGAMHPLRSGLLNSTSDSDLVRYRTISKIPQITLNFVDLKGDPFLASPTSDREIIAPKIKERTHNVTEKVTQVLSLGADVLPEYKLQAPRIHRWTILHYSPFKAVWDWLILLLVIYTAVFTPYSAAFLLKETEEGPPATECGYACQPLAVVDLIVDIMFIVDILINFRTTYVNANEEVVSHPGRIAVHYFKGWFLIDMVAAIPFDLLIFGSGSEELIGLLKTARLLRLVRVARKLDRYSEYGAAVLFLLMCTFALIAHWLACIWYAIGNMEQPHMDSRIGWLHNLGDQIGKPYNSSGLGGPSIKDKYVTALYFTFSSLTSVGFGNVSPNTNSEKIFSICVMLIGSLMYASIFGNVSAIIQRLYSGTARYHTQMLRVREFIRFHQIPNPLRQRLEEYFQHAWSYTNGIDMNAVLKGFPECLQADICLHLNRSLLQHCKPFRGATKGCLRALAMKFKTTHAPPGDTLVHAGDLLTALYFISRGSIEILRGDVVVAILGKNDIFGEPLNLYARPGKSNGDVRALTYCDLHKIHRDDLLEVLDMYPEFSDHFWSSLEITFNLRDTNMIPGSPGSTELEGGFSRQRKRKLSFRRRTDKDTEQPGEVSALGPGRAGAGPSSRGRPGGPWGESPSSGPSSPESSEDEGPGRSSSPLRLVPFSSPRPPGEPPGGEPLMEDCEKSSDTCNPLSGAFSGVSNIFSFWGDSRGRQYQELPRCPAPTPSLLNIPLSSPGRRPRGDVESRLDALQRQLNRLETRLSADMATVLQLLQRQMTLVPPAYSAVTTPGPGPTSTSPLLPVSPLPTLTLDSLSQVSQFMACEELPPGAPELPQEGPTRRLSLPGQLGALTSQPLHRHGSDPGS

Somatostatin receptor type 5, sequence (P35346 whole entry): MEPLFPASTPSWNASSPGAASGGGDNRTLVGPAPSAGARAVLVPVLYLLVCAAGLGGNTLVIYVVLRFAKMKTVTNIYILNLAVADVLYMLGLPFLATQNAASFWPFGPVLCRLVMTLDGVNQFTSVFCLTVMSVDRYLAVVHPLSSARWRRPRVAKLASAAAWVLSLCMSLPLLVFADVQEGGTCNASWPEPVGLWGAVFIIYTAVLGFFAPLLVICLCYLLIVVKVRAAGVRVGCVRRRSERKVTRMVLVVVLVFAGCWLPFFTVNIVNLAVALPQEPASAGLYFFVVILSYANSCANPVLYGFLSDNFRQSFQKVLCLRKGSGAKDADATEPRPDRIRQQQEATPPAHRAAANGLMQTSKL
Somatostatin receptor type 3, sequence (P32745 whole entry): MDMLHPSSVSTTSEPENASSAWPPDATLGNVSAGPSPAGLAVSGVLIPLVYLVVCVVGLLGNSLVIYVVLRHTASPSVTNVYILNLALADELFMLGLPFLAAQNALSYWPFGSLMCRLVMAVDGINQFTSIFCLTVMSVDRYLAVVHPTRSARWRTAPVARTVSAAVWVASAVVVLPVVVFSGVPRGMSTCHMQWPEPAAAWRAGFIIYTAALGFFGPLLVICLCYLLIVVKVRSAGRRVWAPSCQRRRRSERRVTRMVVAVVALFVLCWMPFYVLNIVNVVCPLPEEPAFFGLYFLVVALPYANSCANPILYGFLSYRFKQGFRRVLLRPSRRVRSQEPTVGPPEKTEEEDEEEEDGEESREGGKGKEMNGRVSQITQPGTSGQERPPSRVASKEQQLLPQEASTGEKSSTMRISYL

| SMILES | Ki [1] | Ki (Histamine H1 receptor) | other results |
| --- | --- | --- | --- |
| COc1cc(CN2CCC(NC(=O)c3cncc(C)c3)CC2)c(OC)c2ccccc12 | 0.04 µM | – | – |
| CCOc1cc(CN2CCC(NC(=O)c3cncc(C)c3)CC2)ccc1Cl | 0.02 µM | 0.27 µM | Ki [2]: > 10 µM; Ki [3]: 5.1 µM; Ki [4]: > 10 µM |
| CCOc1cc(CN2CCC(NC(=O)c3cccc(S(C)(=O)=O)c3)CC2)ccc1Cl | 0.06 µM | > 5 µM | IC50 [5]: 1.3 µM |
| COc1cc(CN2CCC(NC(=O)c3ccccc3)CC2)c(OC)c2ccccc12 | 0.12 µM | – | – |
| COc1cc(CN2CCC(NC(=O)c3ccc(C(C)(C)C)cc3)CC2)c(OC)c2ccccc12 | 0.02 µM | – | – |
| COc1cc(CN2CCC3(CC2)OC(=O)c2ccccc23)c(OC)c2ccccc12 | 1.1 µM | – | – |
